Experimental data published in patent publication US20020137929A1, “1 - (3-heterocyclylphenyl) isothiourea, -isourea, -guanidine and -amidine herbicidal agents” (Intellectual Property Department, BASF Aktiengesellschaft, priority 1998, published 2002).

Tests used:
[1] = system: CYPIR (Rice Flatsedge); experiment: Preemergence weed control under flooded paddy conditions; format: in vivo, Cyperus iria; conditions: rated 3-4 weeks after treatment
How it was run: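 Seeds or propagules sown in top 0.5 cm of silt loam soil, flooded 1.5 to 3 cm above surface throughout. Compound in 50/50 v/v aqueous/acetone pipetted into flood water at about 0.0313 to 0.500 kg/ha. Visual 0-9 rating versus control after three to four weeks in greenhouse.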

[2] = system: CASOB (Sicklepod); experiment: Postemergence herbicidal evaluation; format: in vivo, Cassia obtusifolia
How it was run: (§1)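 Scores (0–9) reflect plant stand, vigor, malformation, size, chlorosis and general appearance relative to control, read 4 to 5 weeks after treatment and averaged where tests were repeated. Application: about 0.0156–0.500 kg/ha sprayed at 40 psi onto two-week seedlings.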

[3] = system: AMBEL (Ragweed, Common); experiment: Postemergence herbicidal evaluation; format: in vivo, Ambrosia artemisifolia
How it was run: as §1

[4] = system: CASOB (Sicklepod); experiment: Preemergence herbicidal evaluation; format: in vivo, Cassia obtusifolia; conditions: rated 4-5 weeks after treatment
How it was run: (§2)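 Seeds were planted in potting soil in cups, then sprayed preemergence with the test compound in aqueous acetone at about 0.0156 to 0.500 kg per hectare. Cups were kept under greenhouse conditions and visually rated 4–5 weeks after treatment on a 0–9 scale against an untreated control.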

[5] = system: GLXMAW (Soybean, Williams); experiment: Postemergence herbicidal evaluation; format: in vivo, Glycine max, (L.) Merr. cv Williams
How it was run: as §1

[6] = system: CYPSE (Flatsedge); experiment: Postemergence weed control under flooded paddy conditions; format: in vivo, Cyperus serotinus; conditions: postemergence weeds, 3-4 weeks after treatment
How it was run: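 Weeds 3 to 5 cm tall and rice seedlings at the 1.5 to 2.5 leaf stage were flooded, with water held 1.5 to 3 cm above the soil. Compounds in 50/50 v/v aqueous/acetone went into the flood water at about 0.0313 to 0.500 kg/ha. Visual 0-9 ratings versus control were made 3 to 4 weeks later.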

[7] = system: SAGPY (Arrowhead (Pygmaea)); experiment: Preemergence weed control under flooded paddy conditions; format: in vivo, Sagittaria pygmaea; conditions: rated 3-4 weeks after treatment
How it was run: (§3)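 Seeds or propagules sown in silt loam kept flooded 1.5-3 cm; compounds in 50/50 acetone/water pipetted into flood water at about 0.0313 to 0.500 kg/ha. Greenhouse; visual 0-9 rating versus untreated control 3-4 weeks after treatment.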

[8] = system: SETVI (Foxtail, Green); experiment: Postemergence herbicidal evaluation; format: in vivo, Setaria viridis
How it was run: as §1

[9] = system: GALAP (Galium); experiment: Preemergence herbicidal evaluation; format: in vivo, Galium aparine; conditions: rated 4-5 weeks after treatment
How it was run: as §2

[10] = system: ZEAMX (Corn, Field); experiment: Preemergence herbicidal evaluation; format: in vivo, Zea mays; conditions: rated 4-5 weeks after treatment
How it was run: as §2

[11] = system: ORYSAT (Rice, Tebonnet); experiment: Postemergence herbicidal evaluation; format: in vivo, Oryza sativa, (L.) Tebonnet
How it was run: as §1

[12] = system: GALAP (Galium); experiment: Postemergence herbicidal evaluation; format: in vivo, Galium aparine
How it was run: as §1

[13] = system: CHEAL (Lambsquarters, Common); experiment: Postemergence herbicidal evaluation; format: in vivo, Chenopodium album
How it was run: as §1

[14] = system: ECHCG (Barnyardgrass); experiment: Postemergence herbicidal evaluation; format: in vivo, Echinochloa crus-galli
How it was run: as §1

[15] = system: CYPSE (Flatsedge); experiment: Preemergence weed control under flooded paddy conditions; format: in vivo, Cyperus serotinus; conditions: rated 3-4 weeks after treatment
How it was run: as §3

CCOC(=O)CN1C(=O)C(CC(=O)OC)S/C1=N/c1cc(-n2c(=O)cc(C(F)(F)F)n(C)c2=O)c(F)cc1Cl (stereo not drawn) [Compound 54, 2-{{2-Chloro-5-[3,6-dihydro-3-methyl-2,6-dioxo-4-(trifluoromethyl)-1(2H)-pyrimidinyl]-4-fluorophenyl}imino}-4-oxo-3,5-thiazolidinediacetic acid, 3-ethyl methyl ester]
6.0: Postemergence herbicidal rating CASOB ([2]; Rate 0.0315 kg/ha) | Preemergence herbicidal rating CASOB ([4]; rate 0.2500 kg/ha) | Postemergence herbicidal rating GALAP ([12]; Rate 0.0158 kg/ha)
6.5: Postemergence herbicidal rating ORYSAT ([11]; Rate 0.0630 kg/ha)
4.5: Preemergence herbicidal rating CASOB ([4]; rate 0.1250 kg/ha)
3.0: Preemergence herbicidal rating ZEAMX ([10]; rate 0.5000 kg/ha) | Postemergence herbicidal rating ORYSAT ([11]; Rate 0.0158 kg/ha) | Postemergence herbicidal rating ORYSAT ([11]; Rate 0.0315 kg/ha)
0.0: Herbicidal rating CYPIR ([1]; 0.0313 kg/ha) | Preemergence herbicidal rating CASOB ([4]; rate 0.0156 kg/ha) | Preemergence herbicidal rating CASOB ([4]; rate 0.0313 kg/ha) | Preemergence herbicidal rating CASOB ([4]; rate 0.0625 kg/ha) | Herbicidal rating CYPSE ([6]; rate 0.0313 kg/ha) | Herbicidal rating CYPSE ([6]; rate 0.0625 kg/ha) | Herbicidal rating CYPSE ([6]; rate 0.1250 kg/ha) | Herbicidal rating SAGPY ([7]; 0.0313 kg/ha) | Herbicidal rating SAGPY ([7]; 0.0625 kg/ha) | Herbicidal rating SAGPY ([7]; 0.1250 kg/ha) | Preemergence herbicidal rating GALAP ([9]; rate 0.0156 kg/ha) | Preemergence herbicidal rating GALAP ([9]; rate 0.0313 kg/ha) | Preemergence herbicidal rating GALAP ([9]; rate 0.0625 kg/ha) | Preemergence herbicidal rating ZEAMX ([10]; rate 0.0156 kg/ha) | Herbicidal rating CYPSE ([15]; 0.0313 kg/ha) | Herbicidal rating CYPSE ([15]; 0.0625 kg/ha) | Herbicidal rating CYPSE ([15]; 0.1250 kg/ha)
2.0: Herbicidal rating SAGPY ([7]; 0.2500 kg/ha) | Preemergence herbicidal rating ZEAMX ([10]; rate 0.1250 kg/ha)
4.0: Herbicidal rating CYPIR ([1]; 0.0625 kg/ha) | Herbicidal rating CYPIR ([1]; 0.1250 kg/ha) | Herbicidal rating CYPIR ([1]; 0.2500 kg/ha) | Herbicidal rating CYPSE ([6]; rate 0.2500 kg/ha) | Preemergence herbicidal rating ZEAMX ([10]; rate 0.2500 kg/ha) | Herbicidal rating CYPSE ([15]; 0.2500 kg/ha)
9.0: Postemergence herbicidal rating CASOB ([2]; Rate 0.0630 kg/ha) | Postemergence herbicidal rating AMBEL ([3]; Rate 0.0158 kg/ha) | Postemergence herbicidal rating AMBEL ([3]; Rate 0.0315 kg/ha) | Postemergence herbicidal rating AMBEL ([3]; Rate 0.0630 kg/ha) | Preemergence herbicidal rating CASOB ([4]; rate 0.5000 kg/ha) | Postemergence herbicidal rating GLXMAW ([5]; Rate 0.0158 kg/ha) | Postemergence herbicidal rating GLXMAW ([5]; Rate 0.0315 kg/ha) | Postemergence herbicidal rating GLXMAW ([5]; Rate 0.0630 kg/ha) | Postemergence herbicidal rating SETVI ([8]; Rate 0.0158 kg/ha) | Postemergence herbicidal rating SETVI ([8]; Rate 0.0315 kg/ha) | Postemergence herbicidal rating SETVI ([8]; Rate 0.0630 kg/ha) | Preemergence herbicidal rating GALAP ([9]; rate 0.1250 kg/ha) | Preemergence herbicidal rating GALAP ([9]; rate 0.2500 kg/ha) | Postemergence herbicidal rating GALAP ([12]; Rate 0.0315 kg/ha) | Postemergence herbicidal rating GALAP ([12]; Rate 0.0630 kg/ha) | Postemergence herbicidal rating CHEAL ([13]; Rate 0.0158 kg/ha) | Postemergence herbicidal rating CHEAL ([13]; Rate 0.0315 kg/ha) | Postemergence herbicidal rating CHEAL ([13]; Rate 0.0630 kg/ha) | Postemergence herbicidal rating ECHCG ([14]; Rate 0.0158 kg/ha) | Postemergence herbicidal rating ECHCG ([14]; Rate 0.0315 kg/ha) | Postemergence herbicidal rating ECHCG ([14]; Rate 0.0630 kg/ha)
5.0: Postemergence herbicidal rating CASOB ([2]; Rate 0.0158 kg/ha)
1.0: Preemergence herbicidal rating ZEAMX ([10]; rate 0.0313 kg/ha) | Preemergence herbicidal rating ZEAMX ([10]; rate 0.0625 kg/ha)
